From patent US10201546B2, “Quinolinyl modulators of RORγt” (Janssen Pharmaceutica NV, priority 2013, dated 2019) come the findings set out here.

Where two headings read alike, the source gives them in different places.

Assay [1] concerns the target human RORγt ligand binding domain (RORγt LBD) (Homo sapiens (Human), UniProt P51449). Description: RORγt ThermoFluor assay (thermal shift, binding affinity Kd).
Assay [2] addresses human RORγt LBD fused to the DNA binding domain of the GAL4 protein (Homo sapiens (Human), UniProt P51449). Kind of assay: RORγt (LBD) reporter assay in HEK293T cells. The class given is cell-based. On the set-up: RORγt (LBD) Reporter Assay, % inhibition: dose or concentration left out as unconfirmed. As to conditions: for inhibition at 6 µM: HEK-293T, read-out: RORγt (LBD) Reporter Assay, % inhibition @ 6 μM, @ 6 μM. Background: Reporter assays use an easily measured gene product as a stand-in for the process of interest.
Source text: A reporter assay was used to test functional activity of RORγt modulatory compounds on transcriptional activation driven by the RORγt LBD. Cells used in the assay were co-transfected with two constructs. The first construct, pBIND-RORγt LBD, contained the wild type human RORγt LBD fused to the DNA binding domain of the GAL4 protein. The second construct, pGL4.31 (Promega Cat no. C935A), contained multiple GAL4 responsive DNA elements upstream of firefly luciferase.
The pBIND vector contains the GAL4 DNA Binding Domain (GAL4 DBD) and the renilla luciferase gene under control of the SV40 promoter. Renilla luciferase expression serves as a control for transfection efficiency and cell viability.
The reporter assay was performed by transiently transfecting HEK293T cells with 5 μg of pBIND-RORγt LBD or pBIND-RORγt LBD-AF2 and 5 μg pGL4.31 (Promega Cat no. C935A) using Fugene 6 (Invitrogen Cat no. E2691) at a 1:6 ratio of DNA:Fugene 6 in a T-75 flask in which cells were at least 80% confluent. Twenty four hours after bulk transfection, cells were plated into 96-well plates at 50,000 cells/well in phenol-red free DMEM containing 5% Lipid Reduced FCS and Pen/Strep. Six hours after plating, cells were treated with compounds for 24 hours. Media was removed and cells were lysed with 50 μL 1× Glo Lysis Buffer (Promega). Dual Glo Luciferase Reagent (50 μL/well) was then added and firefly luciferase luminescence was read on an Envision after a ten minute incubation. Finally, Stop and Glo reagent (50 L/well) was added and renilla luciferase luminescence was read on an Envision after a ten minute incubation. To calculate the effect of compounds on RORγt activity, the ratio of firefly to renilla luciferase was determined and plotted against compound concentration. Agonist compounds increase RORγt-driven luciferase expression, and antagonist or inverse agonist compounds decrease luciferase expression.

[3] abbreviates: read-out: ThermoFluor Assay, Kd.
The mark [4] stands for this setting: read-out: ThermoFluor ® Assay, Kd.

Chain of human RORγt LBD fused to the DNA binding domain of the GAL4 protein (P51449 258-518): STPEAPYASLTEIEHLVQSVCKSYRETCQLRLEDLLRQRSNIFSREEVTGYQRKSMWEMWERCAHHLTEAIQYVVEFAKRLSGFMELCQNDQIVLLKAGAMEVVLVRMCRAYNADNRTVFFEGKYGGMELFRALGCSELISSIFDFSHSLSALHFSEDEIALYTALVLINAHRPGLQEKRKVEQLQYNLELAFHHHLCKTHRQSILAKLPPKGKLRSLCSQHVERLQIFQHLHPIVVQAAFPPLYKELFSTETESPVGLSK
Chain of human RORγt ligand binding domain (RORγt LBD) (P51449 other isoform, or with tags, fused parts or gaps): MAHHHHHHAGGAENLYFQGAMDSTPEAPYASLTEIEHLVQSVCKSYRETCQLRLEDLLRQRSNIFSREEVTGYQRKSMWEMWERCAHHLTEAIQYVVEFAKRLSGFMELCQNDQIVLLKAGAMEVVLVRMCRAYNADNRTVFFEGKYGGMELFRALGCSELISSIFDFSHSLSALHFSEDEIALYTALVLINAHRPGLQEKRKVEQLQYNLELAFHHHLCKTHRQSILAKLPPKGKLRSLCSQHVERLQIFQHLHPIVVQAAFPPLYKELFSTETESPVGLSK

As usually defined, the Kd is the free concentration of one partner at which half of the binding sites on the other are occupied at equilibrium, for simple one-to-one binding. In the case of `COc1nc2ccc(C(O)(c3ccc(C)nc3C)c3cnnn3C)cc2c(Cl)c1CC1CCS(=O)(=O)CC1` (single isomer, unassigned) [Example 2c, 4-((4-Chloro-6-((2,6-dimethylpyridin-3-yl)(hydroxy)(1-methyl-1H-1,2,3-triazol-5-yl)methyl)-2-methoxyquinolin-3-yl)methyl)tetrahydro-2H-thiopyran 1,1-dioxide], the Kd in assay [1] (ThermoFluor Assay, Kd) was 110 nM.
As a reminder, the IC50 is the midpoint of a concentration-inhibition curve. As usually defined, the inhibition is the drop in the measured response relative to a control, in per cent. As for `COc1nc2ccc(C(O)(c3cncn3C)C3CCN(S(C)(=O)=O)CC3)cc2c(Cl)c1CC1CCOCC1` (single isomer, unassigned) [Example 6b, (4-Chloro-2-methoxy-3-((tetrahydro-2H-pyran-4-yl)methyl)quinolin-6-yl)(1-methyl-1H-imidazol-5-yl)(1-(methylsulfonyl)piperidin-4-yl)methanol], the Kd in assay [1] (setting [3]) came to 240 nM. Besides, in assay [2], the IC50 was over 6000 nM and the inhibition at 6 µM was found to be 17%.
In the case of `COc1nc2ccc(C(O)(c3cncn3C)C3CCN(S(C)(=O)=O)CC3)cc2c(Cl)c1CC1CCOCC1` (single isomer, unassigned) [Example 6c, (4-Chloro-2-methoxy-3-((tetrahydro-2H-pyran-4-yl)methyl)quinolin-6-yl)(1-methyl-1H-imidazol-5-yl)(1-(methylsulfonyl)piperidin-4-yl)methanol], the Kd in assay [1] (setting [3]) is 130 nM. In assay [2], the IC50 was over 6000 nM. The “RORγt (LBD) Reporter Assay, % inhibition @ 6 μM” value in assay [2] (@ 6 μM) came out at 26%.
For the compound `COc1nc2ccc(C(O)(c3cnc(C)n3C)c3cnc(C)n3C)cc2c(Cl)c1OC1CCCN(C)C1` (single isomer, unassigned) [Example 51b, (4-Chloro-2-methoxy-3-{[1-methylpiperidin-3-yl]oxy}quinolin-6-yl)[bis(1,2-dimethyl-1H-imidazol-5-yl)]methanol], in assay [1] (setting [3]), the Kd was 3000 nM.
In the case of `COc1nc2ccc(C(O)(c3cnc(C)n3C)c3cnc(C)n3C)cc2c(Cl)c1OC1CCCN(C)C1` (single isomer, unassigned) [Example 51c, (4-Chloro-2-methoxy-3-{[1-methylpiperidin-3-yl]oxy}quinolin-6-yl)[bis(1,2-dimethyl-1H-imidazol-5-yl)]methanol], in assay [1] (setting [3]), the Kd was found to be 5000 nM. Besides, in assay [2], the IC50 is over 6000 nM and the inhibition at 6 µM was -4%.
Regarding `COc1nc2ccc(C(O)(c3ccc(C)nc3C)c3cnnn3C)cc2c(Cl)c1OCCN1CCCC1` (single isomer, unassigned) [Example 67b, [4-Chloro-2-methoxy-3-(2-pyrrolidin-1-ylethoxy)quinolin-6-yl](2,6-dimethylpyridin-3-yl)(1-methyl-1H-1,2,3-triazol-5-yl)methanol], in assay [1] (setting [3]), the Kd amounted to 1000 nM. Moreover, in assay [2], the IC50 is over 6000 nM and the inhibition at 6 µM was -37%.
Taken in the same sequence, the figures for `COc1nc2ccc(C(O)(c3ccc(C)nc3C)c3cnnn3C)cc2c(Cl)c1OCCS(C)(=O)=O` (single isomer, unassigned) [Example 70b, {4-Chloro-2-methoxy-3-[2-(methylsulfonyl)ethoxy]quinolin-6-yl}(2,6-dimethylpyridin-3-yl)(1-methyl-1H-1,2,3-triazol-5-yl)methanol] were 2200 nM, over 6000 nM and 28%.
Regarding `COc1nc2ccc(C(O)(c3ccc(C(F)(F)F)nc3)c3cncn3C)cc2c(C#N)c1CN1CCC(C(F)(F)F)CC1` (single isomer, unassigned) [Example 191b, 6-(Hydroxy(1-methyl-1H-imidazol-5-yl)(6-(trifluoromethyl)pyridin-3-yl)methyl)-2-methoxy-3-((4-(trifluoromethyl)piperidin-1-yl)methyl)quinoline-4-carbonitrile], the Kd in assay [1] (setting [4]) is 98 nM.
Still for that read-out and setting: for `COc1nc2ccc(C(O)(c3ccc(C(F)(F)F)nc3)c3cncn3C)cc2c(C#N)c1CN1CCC(C(F)(F)F)CC1` (single isomer, unassigned) [Example 191c, 6-(Hydroxy(1-methyl-1H-imidazol-5-yl)(6-(trifluoromethyl)pyridin-3-yl)methyl)-2-methoxy-3-((4-(trifluoromethyl)piperidin-1-yl)methyl)quinoline-4-carbonitrile] the value was 3.1 nM.
Take `COc1nc2ccc(C(O)(c3cnc(C)n3C)c3cnc(C)n3C)cc2c(Cl)c1OCC1CCCN1C` (centres unmarked) [Example 52, {4-Chloro-2-methoxy-3-[(1-methylpyrrolidin-2-yl)methoxy]quinolin-6-yl}[bis(1,2-dimethyl-1H-imidazol-5-yl)]methanol]: the Kd in assay [1] (setting [3]) stood at 2900 nM.
With `COc1nc2ccc(C(O)(c3ccc(C)nc3C)c3cnnn3C)cc2c(Cl)c1OCC1CC1` (centres unmarked) [Example 68a, [4-Chloro-3-(cyclopropylmethoxy)-2-methoxyquinolin-6-yl](2,6-dimethylpyridin-3-yl)(1-methyl-1H-1,2,3-triazol-5-yl)methanol], in assay [2], the inhibition at 6 µM stood at 83%.
Still for that read-out and setting: the figure for `COc1nc2ccc(C(O)(c3ccc(C)nc3C)c3cnnn3C)cc2c(Cl)c1OC1CCOCC1` (centres unmarked) [Example 69a, [4-Chloro-2-methoxy-3-(tetrahydro-2H-pyran-4-yloxy)quinolin-6-yl](2,6-dimethylpyridin-3-yl)(1-methyl-1H-1,2,3-triazol-5-yl)methanol] is 57%; for `COc1nc2ccc(C(O)(c3ccc(C)nc3C)c3cnnn3C)cc2c(Cl)c1OCC1CC1(F)F` (centres unmarked) [Example 72a, {4-Chloro-3-[(2,2-difluorocyclopropyl)methoxy]-2-methoxyquinolin-6-yl}(2,6-dimethylpyridin-3-yl)(1-methyl-1H-1,2,3-triazol-5-yl)methanol] it is 85%.
In the case of `COc1nc2ccc(C(O)(c3ccc(C)nc3C)c3cnnn3C)cc2c(Cl)c1C(=O)N1CCC(C(F)(F)F)CC1` (centres unmarked) [Example 83, (4-Chloro-2-methoxy-3-{[4-(trifluoromethyl)piperidin-1-yl]carbonyl}quinolin-6-yl)(2,6-dimethylpyridin-3-yl)(1-methyl-1H-1,2,3-triazol-5-yl)methanol], the Kd in assay [1] (setting [3]) was determined as 360 nM.
With `COc1nc2ccc(C(O)(c3ccc(C)nc3C)c3cnnn3C)cc2c(Cl)c1CN1CCC(C(F)(F)F)CC1` (centres unmarked) [Example 103a, (4-Chloro-2-methoxy-3-((4-(trifluoromethyl)piperidin-1-yl)methyl)quinolin-6-yl)(2,6-dimethylpyridin-3-yl)(1-methyl-1H-1,2,3-triazol-5-yl)methanol], the inhibition at 6 µM in assay [2] was found to be 101%.
On to `COc1nc2ccc(C(O)(c3ccc(C)nc3C)c3cnnn3C)cc2c(Cl)c1CN1CCC(F)(F)CC1` (centres unmarked) [Example 107a, (4-Chloro-3-((4,4-difluoropiperidin-1-yl)methyl)-2-methoxyquinolin-6-yl)(2,6-dimethylpyridin-3-yl)(1-methyl-1H-1,2,3-triazol-5-yl)methanol], for which the inhibition at 6 µM in assay [2] turned out to be 54%.
Consider `COc1nc2ccc(C(O)(c3ccc(C)nc3C)c3cnnn3C)cc2c(Cl)c1CC(C)C` (centres unmarked) [Example 133a, (4-Chloro-3-isobutyl-2-methoxyquinolin-6-yl)(2,6-dimethylpyridin-3-yl)(1-methyl-1H-1,2,3-triazol-5-yl)methanol], for which the “RORγt (LBD) Reporter Assay, % inhibition” value in assay [2] was determined as 98%.
Same read-out and setting: for `COc1nc2ccc(C(O)(c3ccc(C)nc3C)c3cnnn3C)cc2c(Cl)c1C1CCCC1` (centres unmarked) [Example 136a, (4-Chloro-3-cyclopentyl-2-methoxyquinolin-6-yl)(2,6-dimethylpyridin-3-yl)(1-methyl-1H-1,2,3-triazol-5-yl)methanol] the value was 97%.
For `COc1nc2ccc(C(O)(c3ccc(C)nc3C)c3cnnn3C)cc2c(Cl)c1C(=O)NCC1CC1` (centres unmarked) [Example 147, 4-Chloro-N-(cyclopropylmethyl)-6-[(2,6-dimethylpyridin-3-yl)(hydroxy)(1-methyl-1H-1,2,3-triazol-5-yl)methyl]-2-methoxyquinoline-3-carboxamide], in assay [1] (setting [4]), the Kd was found to be 930 nM.
Still for that read-out and setting: for `COc1nc2ccc(C(O)(c3ccc(C)nc3C)c3cnnn3C)cc2c(Cl)c1C(=O)N(C)C` (centres unmarked) [Example 148, 4-Chloro-6-[(2,6-dimethylpyridin-3-yl)(hydroxy)(1-methyl-1H-1,2,3-triazol-5-yl)methyl]-2-methoxy-N,N-dimethylquinoline-3-carboxamide] the value was 1700 nM; for `COc1nc2ccc(C(O)(c3ccc(C)nc3C)c3cnnn3C)cc2c(Cl)c1C(=O)N1CCCC1` (centres unmarked) [Example 151, [4-Chloro-2-methoxy-3-(pyrrolidin-1-ylcarbonyl)quinolin-6-yl](2,6-dimethylpyridin-3-yl)(1-methyl-1H-1,2,3-triazol-5-yl)methanol], 5100 nM.
Same read-out and setting: the figure for `COc1nc2ccc(C(O)(c3ccc(C)nc3C)c3cnnn3C)cc2c(Cl)c1C(=O)NCC(F)(F)F` (centres unmarked) [Example 152, 4-Chloro-6-[(2,6-dimethylpyridin-3-yl)(hydroxy)(1-methyl-1H-1,2,3-triazol-5-yl)methyl]-2-methoxy-N-(2,2,2-trifluoroethyl)quinoline-3-carboxamide] is 600 nM; for `COc1nc2ccc(C(O)(c3ccc(C)nc3C)c3cnnn3C)cc2c(Cl)c1C(=O)N1CC(F)(F)C1` (centres unmarked) [Example 153, {4-Chloro-3-[(3,3-difluoroazetidin-1-yl)carbonyl]-2-methoxyquinolin-6-yl}(2,6-dimethylpyridin-3-yl)(1-methyl-1H-1,2,3-triazol-5-yl)methanol] it is 3000 nM; for `COc1nc2ccc(C(O)(c3cnc(C)n3C)c3cnc(C)n3C)cc2c(Cl)c1CNC(=O)CC(F)(F)F` [Example 185, N-((6-(Bis(1,2-dimethyl-1H-imidazol-5-yl)(hydroxy)methyl)-4-chloro-2-methoxyquinolin-3-yl)methyl)-3,3,3-trifluoropropanamide] it is 770 nM.
On to `COc1nc2ccc(C(O)(c3cnc(C)n3C)c3cnc(C)n3C)cc2c(Cl)c1CNC(=O)CCC(F)(F)F` [Example 186, N-((6-(Bis(1,2-dimethyl-1H-imidazol-5-yl)(hydroxy)methyl)-4-chloro-2-methoxyquinolin-3-yl)methyl)-4,4,4-trifluorobutanamide], for which the Kd in assay [1] (setting [4]) stood at 590 nM.
